From patent US4849436A, “1,4-dihydropyridines” (Nelson Research & Development Co., priority 1986, dated 1989)

The compounds below were run against T1, dihydropyridine (DHP) site (Oryctolagus cuniculus, UniProt P07293) (assay: 3H-nitrendipine binding assay on washed rabbit skeletal muscle membranes). Conditions: read-out: Binding Assay KI (moles).
T1 construct: Washed rabbit skeletal muscle membranes (fraction 2-8X); from tissue; host or cells: rabbit skeletal muscle, washed membranes (fraction 2-8X)
T1 sequence (P07293 1-1664 limits assumed): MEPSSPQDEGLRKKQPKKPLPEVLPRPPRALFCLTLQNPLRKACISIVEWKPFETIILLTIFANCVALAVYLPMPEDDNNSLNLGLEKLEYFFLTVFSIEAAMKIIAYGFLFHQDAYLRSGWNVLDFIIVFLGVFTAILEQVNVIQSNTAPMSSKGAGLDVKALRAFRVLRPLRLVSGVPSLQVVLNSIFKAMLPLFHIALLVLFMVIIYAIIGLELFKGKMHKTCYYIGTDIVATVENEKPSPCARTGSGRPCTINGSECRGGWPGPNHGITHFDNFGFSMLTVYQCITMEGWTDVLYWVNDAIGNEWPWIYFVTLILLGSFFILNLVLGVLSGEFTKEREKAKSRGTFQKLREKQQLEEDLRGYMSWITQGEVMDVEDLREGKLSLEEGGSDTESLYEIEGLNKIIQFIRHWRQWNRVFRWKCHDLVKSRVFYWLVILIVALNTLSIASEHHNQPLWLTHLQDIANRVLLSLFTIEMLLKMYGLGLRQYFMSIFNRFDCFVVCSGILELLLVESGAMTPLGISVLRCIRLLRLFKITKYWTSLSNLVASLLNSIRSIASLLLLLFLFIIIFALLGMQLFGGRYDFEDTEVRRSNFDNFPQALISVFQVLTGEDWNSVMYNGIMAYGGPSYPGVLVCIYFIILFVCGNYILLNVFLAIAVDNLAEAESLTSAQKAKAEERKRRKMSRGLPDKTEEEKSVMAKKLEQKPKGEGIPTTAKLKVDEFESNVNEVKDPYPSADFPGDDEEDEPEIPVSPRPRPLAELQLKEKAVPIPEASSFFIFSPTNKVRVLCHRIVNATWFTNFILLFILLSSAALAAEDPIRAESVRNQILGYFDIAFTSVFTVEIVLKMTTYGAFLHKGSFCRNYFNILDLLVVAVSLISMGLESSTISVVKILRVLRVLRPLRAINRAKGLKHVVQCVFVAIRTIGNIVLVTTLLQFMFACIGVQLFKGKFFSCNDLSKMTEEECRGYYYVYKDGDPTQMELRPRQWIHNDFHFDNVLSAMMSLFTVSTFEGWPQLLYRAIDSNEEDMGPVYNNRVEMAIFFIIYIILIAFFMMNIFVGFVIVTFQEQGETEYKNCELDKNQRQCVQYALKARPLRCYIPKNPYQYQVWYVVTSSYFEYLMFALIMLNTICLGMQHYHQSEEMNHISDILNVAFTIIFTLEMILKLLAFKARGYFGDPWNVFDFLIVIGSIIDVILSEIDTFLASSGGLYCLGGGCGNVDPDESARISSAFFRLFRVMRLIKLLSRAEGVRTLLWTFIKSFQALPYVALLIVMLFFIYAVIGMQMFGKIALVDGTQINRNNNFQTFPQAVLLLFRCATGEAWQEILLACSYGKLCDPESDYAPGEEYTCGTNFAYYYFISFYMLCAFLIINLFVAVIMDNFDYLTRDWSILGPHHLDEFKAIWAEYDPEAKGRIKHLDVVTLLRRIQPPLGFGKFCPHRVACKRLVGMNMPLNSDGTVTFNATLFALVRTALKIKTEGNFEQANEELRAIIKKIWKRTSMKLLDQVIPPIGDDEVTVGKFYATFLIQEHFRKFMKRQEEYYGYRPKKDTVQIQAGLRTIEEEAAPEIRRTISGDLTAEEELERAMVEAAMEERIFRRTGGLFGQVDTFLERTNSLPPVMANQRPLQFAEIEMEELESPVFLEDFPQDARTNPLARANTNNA
T1 sequence (P13806 27-960 partner limits assumed): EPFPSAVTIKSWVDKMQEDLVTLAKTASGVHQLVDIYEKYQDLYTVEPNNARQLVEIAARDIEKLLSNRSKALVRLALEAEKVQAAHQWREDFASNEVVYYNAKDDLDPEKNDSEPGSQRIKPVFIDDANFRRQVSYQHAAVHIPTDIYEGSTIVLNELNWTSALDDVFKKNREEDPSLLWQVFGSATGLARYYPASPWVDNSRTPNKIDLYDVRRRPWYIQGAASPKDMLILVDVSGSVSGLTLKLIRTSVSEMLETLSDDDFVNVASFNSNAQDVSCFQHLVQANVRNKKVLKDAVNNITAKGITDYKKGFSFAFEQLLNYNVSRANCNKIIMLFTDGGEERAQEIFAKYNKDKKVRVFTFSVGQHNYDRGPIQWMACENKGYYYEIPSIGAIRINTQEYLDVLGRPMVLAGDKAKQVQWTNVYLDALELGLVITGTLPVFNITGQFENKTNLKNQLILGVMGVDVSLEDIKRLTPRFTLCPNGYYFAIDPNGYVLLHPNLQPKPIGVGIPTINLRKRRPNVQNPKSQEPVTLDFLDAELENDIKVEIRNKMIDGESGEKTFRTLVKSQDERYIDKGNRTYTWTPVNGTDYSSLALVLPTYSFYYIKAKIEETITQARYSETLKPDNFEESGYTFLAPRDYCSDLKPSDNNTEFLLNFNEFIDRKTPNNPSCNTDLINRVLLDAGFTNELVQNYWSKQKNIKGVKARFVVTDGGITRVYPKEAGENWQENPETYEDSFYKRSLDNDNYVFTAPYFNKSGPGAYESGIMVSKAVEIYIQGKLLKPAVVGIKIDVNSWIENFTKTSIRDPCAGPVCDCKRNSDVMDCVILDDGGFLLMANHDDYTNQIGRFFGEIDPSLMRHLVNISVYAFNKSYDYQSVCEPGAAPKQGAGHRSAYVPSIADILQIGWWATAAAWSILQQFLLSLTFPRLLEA
T1 sequence (P13806 961-1106 partner limits assumed): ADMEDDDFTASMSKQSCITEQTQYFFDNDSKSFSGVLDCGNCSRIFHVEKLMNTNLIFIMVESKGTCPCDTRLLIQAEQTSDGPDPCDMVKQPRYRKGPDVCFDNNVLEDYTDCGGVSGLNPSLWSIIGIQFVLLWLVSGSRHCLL
T1 sequence (P19517 whole entry partner): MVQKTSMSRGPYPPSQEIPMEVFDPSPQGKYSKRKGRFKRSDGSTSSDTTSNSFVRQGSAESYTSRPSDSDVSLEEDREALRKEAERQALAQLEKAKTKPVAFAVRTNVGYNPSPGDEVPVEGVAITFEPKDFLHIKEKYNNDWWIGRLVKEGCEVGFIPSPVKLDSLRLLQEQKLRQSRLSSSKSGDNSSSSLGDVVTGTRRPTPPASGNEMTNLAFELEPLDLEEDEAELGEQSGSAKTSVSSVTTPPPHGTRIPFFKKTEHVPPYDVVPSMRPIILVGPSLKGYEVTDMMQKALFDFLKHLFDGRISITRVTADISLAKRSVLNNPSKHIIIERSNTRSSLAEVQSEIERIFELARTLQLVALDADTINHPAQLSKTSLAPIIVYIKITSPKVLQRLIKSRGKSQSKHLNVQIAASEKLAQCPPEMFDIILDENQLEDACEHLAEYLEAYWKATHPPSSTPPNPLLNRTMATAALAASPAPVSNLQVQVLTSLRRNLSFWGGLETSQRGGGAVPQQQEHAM
T1 sequence (P19518 whole entry partner): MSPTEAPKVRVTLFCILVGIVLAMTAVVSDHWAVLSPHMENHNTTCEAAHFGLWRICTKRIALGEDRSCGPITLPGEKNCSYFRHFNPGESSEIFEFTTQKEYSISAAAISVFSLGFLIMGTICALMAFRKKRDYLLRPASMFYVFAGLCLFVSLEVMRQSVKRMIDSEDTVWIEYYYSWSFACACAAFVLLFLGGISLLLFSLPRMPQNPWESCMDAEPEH
Description: The incubation tubes were rapidly chilled in ice and the contents filtered through Whatman GF/B filters on a Millipore manifold, and the filters washed with 2×10 ml ice-cold HEPES buffer. The filters were placed in scintillation counting vials with 8 ml of Cytoscint cocktail, disrupted mechanically by shaking for 30 minutes and counted.
Drugs which interact at the dihydropyridine (DHP) site will reduce this specific binding in a dosedependent manner. The assays for the compounds of this invention were made with logarithmically spaced concentrations, the data were plotted on a probitconcentration plot, and the IC50 read off. The KI of the compound was calculated by standard techniques.
For COC(=O)C1=C(C)NC(C)=C(C(=O)OCCN)C1c1cccc([N+](=O)[O-])c1 (stereo not shown) [Example 3, 1,4-Dihydro-2,6-dimethyl-4-(3-nitrophenyl)-3,5-pyridine dicarboxylic acid, 3-(2-aminoethyl)-5-methyl ester], the Ki was > 100 nM. CCOC(=O)C1=C(CCN2C(=O)c3ccccc3C2=O)NC(CCN2C(=O)c3ccccc3C2=O)=C(C(=O)OCC)C1c1cccc([N+](=O)[O-])c1 [Example 13, 1,4-Dihydro-4(3-nitrophenyl)-2,6-(2-phthalimidoethyl)-3,5-pyridine dicarboxylic acid, ethyl ester] was tested, and the Ki was 1120 nM. With COC(=O)C1=C(C)NC(C)=C(C(=O)OCCN)C1c1cccc(C)c1 (stereo not shown) [Example 2, 1,4-Dihydro-2,6-dimethyl-4-(3-methylphenyl)-3,5-pyridine dicarboxylic acid, 3-(2-aminoethyl)-5-methyl ester] the Ki was 1250 nM. COC(=O)C1=C(C)NC(C)=C(C(=O)OCCCN=C=S)C1c1cccc([N+](=O)[O-])c1 (stereo not shown) [Example 8, 1,4-Dihydro-2.6-dimethyl-4-(3-nitrophenyl)-3,5-pyridine dicarboxylic acid, 3-(3-isothiocyanatopropyl)-5-methyl ester] gave a Ki of 1.6 nM. For COC(=O)C1=C(C)NC(C)=C(C(=O)OCCCCCCN=C=S)C1c1cccc([N+](=O)[O-])c1 (stereo not shown) [Example 9, 1,4-Dihydro-2,6-dimethyl-4-(3-nitrophenyl)-3,5-pyridine dicarboxylic acid, 3-(6-isothiocyanatohexyl)-5-methyl ester], the Ki was 1.9 nM. In the case of COC(=O)C1=C(C)NC(C)=C(C(=O)OCCN=C=S)C1c1cccc([N+](=O)[O-])c1 (stereo not shown) [Example 7, 1,4-Dihydro-2,6-dimethyl-4-(3-nitrophenyl)-3,5-pyridine dicarboxylic acid, 3-(2isothiocyanatoethyl)-5-methyl ester], the Ki is reported as 1.3 nM. CCOC(=O)C1=C(CCN2C(=O)c3ccccc3C2=O)NC(C)=C(C(=O)OC)C1c1cccc([N+](=O)[O-])c1 (stereo not shown) [12(e), 1,4-Dihydro-6-methyl-4(3-nitrophenyl)2-(2-phthalimidoethyl)-3,5-pyridine dicarboxylic acid-3-ethyl-5-methyl ester] was tested, and the Ki was 105 nM.
